Tests used:
[1] = cited from earlier work
[2] = system: bovine serum albumin (BSA); settings: cited from earlier work
[3] = Critical micelle concentration from conductivity measurements; format: physicochemical; settings: 25 °C
[4] = Solubility in water or ethanol by the conductivity method; settings: 25 °C
L929 cells = test: Cytotoxicity, MTT assay; format: cell-based; settings: read-out: IC50 (best-fit), 48 h (method b31 says 24 h)
[5] = Thermogravimetric analysis; format: physicochemical; settings: TGA, nitrogen, 10 °C·min^–1
[6] = Pharmacokinetic experiments in mice; format: in vivo; settings: printed as 'higher than that of naproxen'
[7] = cited from earlier work; remark: listed apart in the source

SMILES	critical micelle concentration ([3]; ethanol)	critical micelle concentration ([3]; water)	mass of solute per 100 g of solvent ([4]; ethanol)	mass of solute per 100 g of solvent ([4]; water)	beginning weight loss temperature [5]	cmax [6]	increase of permeation of naproxen through the skin [1]	binding affinity for BSA relative to parent naproxen [2]	IC50 (L929 cells)	improvement of dissolution rates compared with the original naproxen [7]
CC(C)OC(=O)[C@@H]1CCCN1.COc1ccc2cc([C@H](C)C(=O)O)ccc2c1 [L-proline isopropyl ester naproxen]	–	–	–	–	–	–	almost four times	–	–	–
CC(C)OC(=O)[C@@H](N)C(C)C.COc1ccc2cc([C@H](C)C(=O)O)ccc2c1 [L-valine isopropyl ester naproxen]	–	–	–	–	–	–	–	about 1 order of magnitude lower	–	–
CCCC[P+](CCCC)(CCCC)CCCC.COc1ccc2cc(C(C)C(=O)[O-])ccc2c1 [[Tbp][Nap], tetrabutyl phosphonium naproxen]	–	–	–	–	–	–	–	–	–	up to 1000 times

The next lines start with results.

critical micelle concentration ([3]; ethanol)	critical micelle concentration ([3]; water)	mass of solute per 100 g of solvent ([4]; ethanol)	mass of solute per 100 g of solvent ([4]; water)	beginning weight loss temperature [5]	cmax [6]	SMILES	increase of permeation of naproxen through the skin [1]	binding affinity for BSA relative to parent naproxen [2]	IC50 (L929 cells)	improvement of dissolution rates compared with the original naproxen [7]
6.25 × 10^–6 mol·L^–1	3.05 × 10^–5 mol·L^–1	97.61 g·100 g^–1	61.6251 g·100 g^–1	147.05 °C	–	CCCCCCCCCCCCCC[N+](C)(C)Cc1ccccc1.COc1ccc2cc([C@H](C)C(=O)[O-])ccc2c1 [[Ben][Nap], tetradecyldimethylbenzyl ammonium naproxen]	–	–	111 µM	–
3.48 × 10^–6 mol·L^–1	3.75 × 10^–5 mol·L^–1	70.23 g·100 g^–1	124.51 g·100 g^–1	171.93 °C	23.051 mg·L^–1	COc1ccc2cc(C(C)C(=O)[O-])ccc2c1.C[N+](C)(C)CCO (stereo not shown) [[Ch][Nap], choline naproxen]	–	–	783 µM	–
4.89 × 10^–6 mol·L^–1	5.68 × 10^–5 mol·L^–1	82.00 g·100 g^–1	112.56 g·100 g^–1	218.79 °C	–	CCCCCCCCn1cc[n+](C)c1.COc1ccc2cc(C(C)C(=O)[O-])ccc2c1 (stereo not shown) [[Omim][Nap], 1-octyl-3-methylimidazole naproxen]	–	–	174 µM	–
